Where “and” joins values, the source holds several entries; their conditions need not be identical. Equal entries are not always repeated. Inconclusive results and toxic doses are left out.
Test system: BDF1 mice, P388 leukemia ip, median survival T/C
Assay: NCI In Vivo Anticancer Drug Screen. Data for tumor model P388 Leukemia (intraperitoneal) in B6D2F1 (BDF1) mice
Conditions: endpoint: median survival time, higher = longer survival
In short: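 Mice carrying the transplantable tumour receive compound or vehicle. Survival is followed in each arm, and the treated measure is divided by the vehicle measure.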

[1] = dose: 12.5 mg/kg/injection, schedule: Q01DX009 (ip), vehicle: saline
[2] = dose: 50.0 mg/kg/injection, schedule: Q01DX009 (ip), vehicle: saline with Tween-80
[3] = dose: 100.0 mg/kg/injection, schedule: Q01DX009 (ip), vehicle: Klucel (hydroxypropylcellulose) (HPC)
[4] = dose: 25.0 mg/kg/injection, schedule: Q01DX009 (ip), vehicle: saline
[5] = dose: 100.0 mg/kg/injection, schedule: Q01DX001 (ip), vehicle: saline with Tween-80
[6] = dose: 200.0 mg/kg/injection, schedule: Q01DX001 (ip), vehicle: saline with Tween-80
[7] = dose: 400.0 mg/kg/injection, schedule: Q01DX001 (ip), vehicle: saline with Tween-80
[8] = dose: 12.5 mg/kg/injection, schedule: Q04DX003 (ip), vehicle: saline with Tween-80
[9] = dose: 25.0 mg/kg/injection, schedule: Q04DX003 (ip), vehicle: saline with Tween-80

SMILES: ClCCCN1CCCCC1CCl (stereo not drawn)
- T/C (dose: 3.12 mg/kg/injection, schedule: Q04DX003 (ip), vehicle: saline): 102 % of control
- T/C (dose: 6.25 mg/kg/injection, schedule: Q01DX009 (ip), vehicle: saline): 242 % of control
- T/C [1]: 254 % of control and 96 % of control
- T/C (dose: 12.5 mg/kg/injection, schedule: Q04DX003 (ip), vehicle: saline): 151 % of control
- T/C (dose: 25.0 mg/kg/injection, schedule: Q04DX003 (ip), vehicle: saline): 236 % of control and 182 % of control
- T/C (dose: 40.0 mg/kg/injection, schedule: Q04DX003 (ip), vehicle: saline): 90 % of control

SMILES: CCN(CC)c1oc2ccc3ccccc3c2c(=O)c1Cl
- T/C [2]: 97 % of control
- T/C (dose: 100.0 mg/kg/injection, schedule: Q01DX009 (ip), vehicle: saline with Tween-80): 94 % of control
- T/C (dose: 200.0 mg/kg/injection, schedule: Q01DX009 (ip), vehicle: saline with Tween-80): 92 % of control

SMILES: CCCCCCCCCCNc1ccc(NCCCCCCCCCC)cc1
- T/C [3]: 100 % of control
- T/C (dose: 100.0 mg/kg/injection, schedule: Q04DX003 (ip), vehicle: Klucel (hydroxypropylcellulose) (HPC)): 120 % of control
- T/C (dose: 400.0 mg/kg/injection, schedule: Q01DX009 (ip), vehicle: Klucel (hydroxypropylcellulose) (HPC)): 100 % of control

SMILES: OCC1OC(n2cnc3cncnc32)C(O)C1O (stereo not drawn)
- T/C (dose: 0.78 mg/kg/injection, schedule: Q01DX009 (ip), vehicle: saline): 97 % of control
- T/C (dose: 1.56 mg/kg/injection, schedule: Q01DX009 (ip), vehicle: saline): 113 % of control and 115 % of control
- T/C (dose: 3.13 mg/kg/injection, schedule: Q04DX003 (ip), vehicle: saline): 100 % of control
- T/C (dose: 6.25 mg/kg/injection, schedule: Q04DX003 (ip), vehicle: saline): 116 % of control
- T/C [4]: 100 % of control

SMILES: Nc1nc(SCc2ccccn2)c2[nH]cnc2n1
- T/C (dose: 20.0 mg/kg/injection, schedule: Q04DX003 (ip), vehicle: Klucel (hydroxypropylcellulose) (HPC)): 104 % of control
- T/C (dose: 30.0 mg/kg/injection, schedule: Q04DX003 (ip), vehicle: Klucel (hydroxypropylcellulose) (HPC)): 104 % of control
- T/C (dose: 44.0 mg/kg/injection, schedule: Q04DX003 (ip), vehicle: Klucel (hydroxypropylcellulose) (HPC)): 104 % of control
- T/C [3]: 107 % of control
- T/C (dose: 200.0 mg/kg/injection, schedule: Q01DX009 (ip), vehicle: Klucel (hydroxypropylcellulose) (HPC)): 92 % of control

SMILES: c1cc(Sc2cccc3nncn23)n2cnnc2c1
- T/C [5]: 103 % of control
- T/C [6]: 97 % of control
- T/C [7]: 103 % of control

SMILES: CC(C)C(=O)c1ccco1
- T/C (dose: 6.25 mg/kg/injection, schedule: Q04DX003 (ip), vehicle: saline with Tween-80): 95 % of control
- T/C [8]: 100 % of control
- T/C [9]: 90 % of control

SMILES: Cn1c(N)c(N=Nc2ccccc2)c(=O)[nH]c1=O
- T/C [5]: 100 % of control
- T/C [6]: 102 % of control
- T/C [7]: 90 % of control

SMILES: CC(C)[N+](C)(C)CC(O)COc1cccc2ccccc12 (stereo not drawn)
- T/C [1]: 103 % of control and 112 % of control
- T/C [4]: 88 % of control and 109 % of control
- T/C (dose: 50.0 mg/kg/injection, schedule: Q01DX009 (ip), vehicle: saline): 105 % of control and 123 % of control

SMILES: OC(Cc1ccc2ccccc2n1)C(Cl)(Cl)Cl (stereo not drawn)
- T/C (dose: 3.12 mg/kg/injection, schedule: Q01DX009 (ip), vehicle: saline with Tween-80): 95 % of control
- T/C (dose: 6.25 mg/kg/injection, schedule: Q01DX009 (ip), vehicle: saline with Tween-80): 100 % of control
- T/C (dose: 12.5 mg/kg/injection, schedule: Q01DX009 (ip), vehicle: saline with Tween-80): 100 % of control
- T/C [8]: 100 % of control
- T/C (dose: 25.0 mg/kg/injection, schedule: Q01DX009 (ip), vehicle: saline with Tween-80): 92 % of control
- T/C [9]: 105 % of control
- T/C [2]: 90 % of control
- T/C (dose: 50.0 mg/kg/injection, schedule: Q04DX003 (ip), vehicle: saline with Tween-80): 100 % of control
- T/C (dose: 100.0 mg/kg/injection, schedule: Q04DX003 (ip), vehicle: saline with Tween-80): 91 % of control

Reference: PubChem BioAssay AID328 (DTP/NCI, 2004)
